The numbers were not newly measured in PubChem BioAssay AID1259409 (Chemical Carcinogenesis Research Information System (CCRIS), 2018), which cites them from elsewhere.

This series has as its system rodent chemically induced tumor inhibition, incidence and multiplicity. Nature of the series: CCRIS tumor inhibitor studies. Conditions: Route [Inhibitor]: ORAL, Species: RAT.

Regarding `NCCCN`, the “tumour outcome (control, treated, inhibition, significance)” value runs as follows: (Carcinogen: AZOXYMETHANE, 25843-45-2, Dose [Inhibitor]: 0, 2.5 G/L IN DRINKING WATER AD LIBITUM FOR DURATION OF STUDY (STUDY DURATION: 40 WK), Strain/Sex: WISTAR/MALE, Target Tissue: Type of Lesion: INTESTINE: TUMOR, Dose [Carcinogen]: 7.4 MG/KG BW IN 0.9% SALINE 1/WK FOR 10 WK, Promoter: BOMBESIN, 31362-50-2) 20/20 (100%), 11/20 (55%), 45%, p<0.01; (Carcinogen: AZOXYMETHANE, 25843-45-2, Dose [Inhibitor]: 0, 2.5 G/L IN DRINKING WATER FOR DURATION OF STUDY (STUDY DURATION: 45 WK), Strain/Sex: WISTAR/MALE, Target Tissue: Type of Lesion: COLON: TUMOR, Dose [Carcinogen]: 7.4 MG/KG BW IN 0.9% SALINE 1/WK FOR 10 WK, Promoter: VASOACTIVE INTESTINAL PEPTIDE, 37221-79-7) 14/18 (78%), 6/18 (33%), 58%, p<0.02; (Carcinogen: N-BUTYL-N-(4-HYDROXYBUTYL)NITROSAMINE [3817-11-6], Dose [Inhibitor]: 2 G/L IN DRINKING WATER FOR 32 WK BEGINNING 2 D POST LAST CARCINOGEN DOSE (STUDY DURATION: 36 WK), Strain/Sex: F344/MALE, Target Tissue: Type of Lesion: URINARY BLADDER: CARCINOMA, Dose [Carcinogen]: 0.05% IN DRINKING WATER FOR 4 WK (STUDY DURATION: 36 WK), Promoter: NONE) 5/17 (29%), 3/17 (18%), 39%, not significant; (Carcinogen: N-BUTYL-N-(4-HYDROXYBUTYL)NITROSAMINE [3817-11-6], Dose [Inhibitor]: 2 G/L IN DRINKING WATER FOR 32 WK BEGINNING 2 D POST LAST CARCINOGEN DOSE (STUDY DURATION: 36 WK), Strain/Sex: F344/MALE, Target Tissue: Type of Lesion: URINARY BLADDER: CARCINOMA, Dose [Carcinogen]: 0.05% IN DRINKING WATER FOR 4 WK (STUDY DURATION: 36 WK), Promoter: SODIUM L-ASCORBATE [134-03-2]) 15/15 (100%), 18/18 (100%), 0%, not significant; (Carcinogen: N-BUTYL-N-(4-HYDROXYBUTYL)NITROSAMINE [3817-11-6], Dose [Inhibitor]: 2 G/L IN DRINKING WATER FOR 32 WK BEGINNING 2 D POST LAST CARCINOGEN DOSE (STUDY DURATION: 36 WK), Strain/Sex: F344/MALE, Target Tissue: Type of Lesion: URINARY BLADDER: PAPILLOMA, Dose [Carcinogen]: 0.05% IN DRINKING WATER FOR 4 WK (STUDY DURATION: 36 WK), Promoter: SODIUM L-ASCORBATE [134-03-2]) 15/15 (100%), 18/18 (100%), 0%, not significant; (Carcinogen: N-METHYL-N'-NITRO-N-NITROSOGUANIDINE, 70-25-7, Dose [Inhibitor]: 0, 2.5 G/L IN DRINKING WATER BEGINNING 1 WK POST CARCINOGEN TREATMENT AND CONTINUING FOR DURATION OF STUDY (STUDY DURATI, Strain/Sex: WISTAR/MALE, Target Tissue: Type of Lesion: STOMACH: ADENOCARCINOMA, Dose [Carcinogen]: 50 UG/ML IN DRINKING WATER FOR 25 WK, Promoter: BOMBESIN, 31362-50-2) 14/20 (70%), 6/20 (30%), 57%, p<0.05. Moreover, the “tumour outcome (control, treated, inhibition, significance)” value (Carcinogen: N-METHYL-N'-NITRO-N-NITROSOGUANIDINE, 70-25-7, Dose [Inhibitor]: 0, 2.5 G/L IN DRINKING WATER FOR 26 WK BEGINNING 1 WK POST CARCINOGEN TREATMENT (STUDY DURATION: 52 WK), Strain/Sex: WISTAR/MALE, Target Tissue: Type of Lesion: GLANDULAR STOMACH: ADENOCARCINOMA, Dose [Carcinogen]: 25 UG/ML IN DRINKING WATER FOR 25 WK, Promoter: SODIUM CHLORIDE, 7647-14-5) is recorded as 14/19 (74%), 6/20 (30%), 59%, p<0.02 and the “tumour outcome (control, treated, inhibition, significance)” value (Carcinogen: N-METHYL-N'-NITRO-N-NITROSOGUANIDINE, 70-25-7, Dose [Inhibitor]: 0, 25 G/L IN DRINKING WATER FOR 26 WK BEGINNING 1/WK POST CARCINOGEN TREATMENT (STUDY DURATION: 52 WK), Strain/Sex: WISTAR/MALE, Target Tissue: Type of Lesion: STOMACH: ADENOCARCINOMA, Dose [Carcinogen]: 25 UG/ML IN DRINKING WATER FOR 25 WK, Promoter: TYROSINE METHYL ESTER, 1080-06-4) is 15/18 (83%), 8/18 (44%), 47%, p<0.05.
